Structures are written as SMILES.

Chain of USP30 (Q70CQ3 57-517): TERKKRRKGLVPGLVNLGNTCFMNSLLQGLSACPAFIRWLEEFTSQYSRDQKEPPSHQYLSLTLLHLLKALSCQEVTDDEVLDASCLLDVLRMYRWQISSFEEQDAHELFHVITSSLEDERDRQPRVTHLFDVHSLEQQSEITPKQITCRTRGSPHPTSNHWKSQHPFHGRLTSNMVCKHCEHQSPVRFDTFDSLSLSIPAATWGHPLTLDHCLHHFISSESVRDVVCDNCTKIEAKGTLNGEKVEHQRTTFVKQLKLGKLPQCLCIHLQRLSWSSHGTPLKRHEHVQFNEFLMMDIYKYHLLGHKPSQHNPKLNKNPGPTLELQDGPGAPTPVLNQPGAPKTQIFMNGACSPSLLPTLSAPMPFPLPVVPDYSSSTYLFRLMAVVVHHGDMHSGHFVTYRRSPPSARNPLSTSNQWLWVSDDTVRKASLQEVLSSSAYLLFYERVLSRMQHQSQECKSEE

This experiment has as its target USP30 (Homo sapiens (Human), UniProt Q70CQ3). As to the kind of experiment: USP30 biochemical FP or FI IC50 assay. As to conditions: read-out: IC50 range. The gist of the method:
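Human USP30 preincubated 30 min at room temperature with compound (8-point series, 100 µM top final) in Tris pH 7.5, Tween 20, BSA, 5 mM β-mercaptoethanol, in duplicate. FP format: 50 nM TAMRA-peptide–isopeptide-ubiquitin substrate, ex 540/em 590. FI format: 100 nM ubiquitin-rhodamine 110, ex 487/em 535. Both read at 0 and after 2 h at room temperature.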
Broadly, the IC50 is the concentration that inhibits the measured activity by half. As for `COc1cc(C(=O)N[C@@H]2CCN(C#N)C2)ccc1-c1ccnc(C)c1` [Example 40, (R)-N-(1-cyanopyrrolidin-3-yl)-3-methoxy-4-(2-methylpyridin-4-yl)benzamide], the IC50 was under 0.1 µM.

Take `N#CN1CCC(NC(=O)Nc2cccc(Oc3ccccc3)c2)C1` (stereo not drawn) [Example 255, 1-(1-cyanopyrrolidin-3-yl)-3-(3-phenoxyphenyl)urea]: the IC50 is under 0.1 µM. Take `Cn1cc(-c2ccc3[nH]c(C(=O)N[C@@H]4CCN(C#N)C4)cc3c2)cn1` [Example 130, (R)-N-(1-cyanopyrrolidin-3-yl)-5-(1-methyl-1H-pyrazol-4-yl)-1H-indole-2-carboxamide]: the IC50 was under 0.1 µM. Consider `COc1ccnc(Nc2ccc(C(=O)N[C@@H]3CCN(C#N)C3)c(F)c2)n1` [Example 149, (R)-N-(1-cyanopyrrolidin-3-yl)-2-fluoro-4-((4-methoxypyrimidin-2-yl)amino)benzamide], for which the IC50 was under 0.1 µM. As for `Cn1cc(-c2ccc3c(C(=O)N[C@@H]4CCN(C#N)C4)n[nH]c3c2)cn1` [Example 127, (R)-N-(1-cyanopyrrolidin-3-yl)-6-(1-methyl-1H-pyrazol-4-yl)-1H-indazole-3-carboxamide], the figure is 0.1 to 1 µM; as for `C[C@H]1CN(C#N)C[C@@H]1NC(=O)c1cnc(-c2ccccc2)s1` [Example 71, N-((3R,4S)-1-cyano-4-methylpyrrolidin-3-yl)-2-phenylthiazole-5-carboxamide], 0.1 to 1 µM; as for `CC(C)C(=O)N(C)c1cccc(C(=O)N[C@@H]2CCN(C#N)C2)c1` [Example 62, (R)—N-(1-cyanopyrrolidin-3-yl)-3-(N-methylisobutyramido)benzamide], 0.1 to 1 µM. Consider `Cn1cc(-c2cc(C(=O)N[C@@H]3CCN(C#N)C3)ccc2F)cn1` [Example 43, (R)-N-(1-cyanopyrrolidin-3-yl)-4-fluoro-3-(1-methyl-1H-pyrazol-4-yl)benzamide], for which the half-inhibitory concentration (IC50) was 0.1 to 1 µM.

As to `N#CN1CCC(NC(=O)c2ccc(-c3cccc(Cl)c3)cc2)C1` (racemic) [Example 13, 3′-chloro-N-(1-cyanopyrrolidin-3-yl)-[1,1′-biphenyl]-4-carboxamide], the IC50 is under 0.1 µM. Consider `N#CN1CC[C@@H](NC(=O)c2ccc(Nc3ncccn3)c(F)c2)C1` [Example 142, (R)-N-(1-cyanopyrrolidin-3-yl)-3-fluoro-4-(pyrimidin-2-ylamino)benzamide], for which the IC50 was under 0.1 µM. As for `N#CN1CC[C@@H](NC(=O)c2ccc(-c3ccc(F)cc3)cn2)C1` [Example 173, (R)-N-(1-cyanopyrrolidin-3-yl)-5-(4-fluorophenyl)picolinamide], the IC50 is under 0.1 µM.

Regarding `N#CN1CC[C@@H](NC(=O)c2cc(N3Cc4ccccc4C3)ncc2F)C1` [Example 141, (R)-N-(1-cyanopyrrolidin-3-yl)-5-fluoro-2-(isoindolin-2-yl)isonicotinamide], the IC50 is 0.1 to 1 µM. As for `Cc1cc(-c2ccn3c(C(=O)N(C)[C@@H]4CCN(C#N)C4)cnc3c2)cc(C)n1` [Example 164, (R)-N-(1-cyanopyrrolidin-3-yl)-7-(2,6-dimethylpyridin-4-yl)-N-methylimidazo[1,2-a]pyridine-3-carboxamide], the figure is 0.1 to 1 µM; as for `N#CN1CC[C@@H](NC(=O)c2ccc(-c3cn[nH]c3C(F)(F)F)cc2F)C1` [Example 85, (R)-N-(1-cyanopyrrolidin-3-yl)-2-fluoro-4-(5-(trifluoromethyl)-1H-pyrazol-4-yl)benzamide], under 0.1 µM; as for `Cn1cc(-c2ccc3[nH]nc(C(=O)N[C@@H]4CCN(C#N)C4)c3c2)cn1` [Example 126, (R)-N-(1-cyanopyrrolidin-3-yl)-5-(1-methyl-1H-pyrazol-4-yl)-1H-indazole-3-carboxamide], under 0.1 µM. The figure for `CN(C(=O)c1nc2ccc(-c3cnn(C)c3)cc2[nH]1)[C@@H]1CCN(C#N)C1` [Example 88, (R)-N-(1-cyanopyrrolidin-3-yl)-N-methyl-6-(1-methyl-1H-pyrazol-4-yl)-1H-benzo[d]imidazole-2-carboxamide] is 0.1 to 1 µM; for `Cn1cc(-c2ccc(C(=O)NC3(C)CCN(C#N)C3)c(F)c2)cn1` (stereo not drawn) [Example 94, N-(1-cyano-3-methylpyrrolidin-3-yl)-2-fluoro-4-(1-methyl-1H-pyrazol-4-yl)benzamide] it is 1 to 10 µM; for `N#CN1CC[C@@H](NC(=O)c2cc(-c3ccncc3)on2)C1` [Example 34, (R)-N-(1-cyanopyrrolidin-3-yl)-5-(pyridin-4-yl)isoxazole-3-carboxamide] it is 0.1 to 1 µM.

Consider `N#CN1CCC(NC(=O)Nc2ccc(C(F)(F)F)cc2)C1` (stereo not drawn) [Example 252, 1-(1-cyanopyrrolidin-3-yl)-3-(4-(trifluoromethyl)phenyl)urea], for which the IC50 was 0.1 to 1 µM.

Turning to `N#CN1CC[C@@H](NC(=O)C2CCN(c3ccccc3)C2)C1` (stereo partly drawn) [Example 222, N-((R)-1-cyanopyrrolidin-3-yl)-1-phenylpyrrolidine-3-carboxamide], the IC50 is 0.1 to 1 µM.

Consider `N#CN1CC[C@@H](NC(=O)c2ccc(Nc3nccc(C4CC4)n3)c(F)c2F)C1` [Example 214, (R)-N-(1-cyanopyrrolidin-3-yl)-4-((4-cyclopropylpyrimidin-2-yl)amino)-2,3-difluorobenzamide], for which the IC50 was under 0.1 µM.

`CC(C)Cn1nc(C(=O)N[C@@H]2CCN(C#N)C2)c2ccc(-c3cnn(C)c3)cc21` [Example 153, (R)-N-(1-cyanopyrrolidin-3-yl)-1-isobutyl-6-(1-methyl-1H-pyrazol-4-yl)-1H-indazole-3-carboxamide]: the IC50 is 0.1 to 1 µM. As for `COc1ccc(-c2cc(C(=O)N[C@@H]3CCN(C#N)C3)on2)cc1` [Example 100, (R)-N-(1-cyanopyrrolidin-3-yl)-3-(4-methoxyphenyl)isoxazole-5-carboxamide], the figure is under 0.1 µM. As to `N#CN1CC[C@@H](NC(=O)c2cc(F)c(N3CCCC3)cc2F)C1` [Example 145, (R)-N-(1-cyanopyrrolidin-3-yl)-2,5-difluoro-4-(pyrrolidin-1-yl)benzamide], the IC50 was under 0.1 µM. As for `N#CN1CC[C@@H](NC(=O)c2ccc3c(c2)CCN3c2nccc(C3CC3)n2)C1` [Example 239, (R)-N-(1-cyanopyrrolidin-3-yl)-1-(4-cyclopropylpyrimidin-2-yl)indoline-5-carboxamide], the figure is under 0.1 µM.

Regarding `N#CN1CC[C@@H](N2CCCN(c3nc(-c4ccccc4)cs3)C2=O)C1` [Example 209, (R)-3-(2-oxo-3-(4-phenylthiazol-2-yl)tetrahydropyrimidin-1(2 H)-yl)pyrrolidine-1-carbonitrile], the IC50 fell in the range of 0.1 to 1 µM. For `Cn1cc(C2CCN(C(=O)N[C@@H]3CCN(C#N)C3)C2)cn1` (stereo partly drawn) [Example 226, N-((R)-1-cyanopyrrolidin-3-yl)-3-(1-methyl-1H-pyrazol-4-yl)pyrrolidine-1-carboxamide], the IC50 lay within 1 to 10 µM. As to `N#CN1C[C@H]2CCN(C(=O)c3ccc(-c4ccccc4)[nH]c3=O)[C@H]2C1` [Example 61, (3aR,6aR)-1-(2-oxo-6-phenyl-1,2-dihydropyridine-3-carbonyl)hexahydropyrrolo[3,4-b]pyrrole-5(1H)-carbonitrile], the IC50 was in the range of 0.1 to 1 µM. Consider `Cn1cc(-c2ccc3cc(C(=O)N[C@@H]4CCN(C#N)C4)n(C)c3c2)cn1` [Example 229, (R)-N-(1-cyanopyrrolidin-3-yl)-1-methyl-6-(1-methyl-1H-pyrazol-4-yl)-1H-indole-2-carboxamide], for which the IC50 was 0.1 to 1 µM. As for `CN(C(=O)Nc1cccc(Oc2ccccc2)c1)C1CCN(C#N)C1` (stereo not drawn) [Example 258, 1-(1-cyanopyrrolidin-3-yl)-1-methyl-3-(3-phenoxyphenyl)urea], the figure is under 0.1 µM; as for `COC1(c2ccccc2)CN(C(=O)N[C@@H]2CCN(C#N)C2)C1` [Example 188, (R)-N-(1-cyanopyrrolidin-3-yl)-3-methoxy-3-phenylazetidine-1-carboxamide], 0.1 to 1 µM; as for `N#CN1CC[C@@H](NC(=O)N2CC(c3ccn(-c4cnccn4)n3)C2)C1` [Example 235, (R)-N-(1-cyanopyrrolidin-3-yl)-3-(1-(pyrazin-2-yl)-1H-pyrazol-3-yl)azetidine-1-carboxamide], 0.1 to 1 µM.

On to `CN(c1ccc(C(=O)N[C@@H]2CCN(C#N)C2)c(F)c1)S(=O)(=O)c1ccccc1` [Example 228, (R)-N-(1-cyanopyrrolidin-3-yl)-2-fluoro-4-(N-methylphenylsulfonamido)benzamide], for which the IC50 was in the range of 0.1 to 1 µM.

Take `Cn1ncc2cc(-c3cnc(C(=O)N[C@@H]4CCN(C#N)C4)c(F)c3)ccc21` [Example 120, (R)-N-(1-cyanopyrrolidin-3-yl)-3-fluoro-5-(1-methyl-1H-indazol-5-yl)picolinamide]: the IC50 was under 0.1 µM. `C[C@@H]1CN(c2ccc(C(=O)N[C@@H]3CCN(C#N)C3)cc2F)C[C@H](C)O1` [Example 6, N—((R)-1-cyanopyrrolidin-3-yl)-4-((cis)-2,6-dimethylmorpholino)-3-fluorobenzamide]: the IC50 was 0.1 to 1 µM. As to `Cc1cc(-c2cc(C(=O)N(C)[C@@H]3CCN(C#N)C3)on2)ccn1` [Example 273, (R)—N-(1-cyanopyrrolidin-3-yl)-N-methyl-3-(2-methylpyridin-4-yl)isoxazole-5-carboxamide], the IC50 fell in the range of 0.1 to 1 µM.

Regarding `N#CN1CC[C@@H](NC(=O)c2cc(-c3ccccc3)[nH]n2)C1` [Example 102, (R)-N-(1-cyanopyrrolidin-3-yl)-phenyl-1H-pyrazole-3-carboxamide], the IC50 is under 0.1 µM. The figure for `COc1cccc(-c2cc(C(=O)N[C@@H]3CCN(C#N)C3)on2)c1` [Example 221, (R)-N-(1-cyanopyrrolidin-3-yl)-3-(3-methoxyphenyl)isoxazole-5-carboxamide] is under 0.1 µM; for `N#CN1CC[C@@H](NC(=O)c2ccc3c(c2)OCCN3c2nccc(C3CC3)n2)C1` [Example 212, (R)-N-(1-cyanopyrrolidin-3-yl)-4-(4-cyclopropylpyrimidin-2-yl)-3,4-dihydro-2H-benzo[b][1, 4]oxazine-7-carboxamide] it is under 0.1 µM.

For the origin of these results see US10343992B2, “1-cyano-pyrrolidine compounds as USP30 inhibitors” (MISSION THERAPEUTICS LIMITED, priority 2015, dated 2019).
